Assay results taken from patent publication US9963456B2, “Pyrrolopyrimidine compound or salt thereof and compositions containing the pyrrolopyrimidine compound or salt thereof” (TAIHO PHARMACEUTICAL CO., LTD., priority 2014, dated 2018).

What follows are compounds tested against NAE (heterodimer of APPBP1 and UBA3) (Homo sapiens (Human), UniProt Q8TBC4) (assay: Nedd8 conjugation inhibitory activity (AlphaScreen assay)). Details: purified NAE, GST-UBC12, Biotin-Nedd8, ATP.
Type: biochemical

Sequence of NAE (heterodimer of APPBP1 and UBA3) (Q8TBC4 whole entry): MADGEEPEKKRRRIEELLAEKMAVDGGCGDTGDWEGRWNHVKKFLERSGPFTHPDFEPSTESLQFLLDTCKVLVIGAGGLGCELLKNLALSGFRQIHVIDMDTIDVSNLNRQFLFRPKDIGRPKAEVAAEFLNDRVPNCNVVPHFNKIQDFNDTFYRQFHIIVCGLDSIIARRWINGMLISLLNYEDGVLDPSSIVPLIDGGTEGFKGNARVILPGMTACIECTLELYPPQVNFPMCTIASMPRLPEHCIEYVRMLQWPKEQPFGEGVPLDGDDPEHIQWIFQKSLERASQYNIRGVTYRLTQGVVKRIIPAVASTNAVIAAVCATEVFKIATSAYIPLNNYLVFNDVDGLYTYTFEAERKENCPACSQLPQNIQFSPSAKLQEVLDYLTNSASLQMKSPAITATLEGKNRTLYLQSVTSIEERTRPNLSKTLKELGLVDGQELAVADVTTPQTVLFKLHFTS
Sequence of NAE (heterodimer of APPBP1 and UBA3) (Q13564 whole entry partner): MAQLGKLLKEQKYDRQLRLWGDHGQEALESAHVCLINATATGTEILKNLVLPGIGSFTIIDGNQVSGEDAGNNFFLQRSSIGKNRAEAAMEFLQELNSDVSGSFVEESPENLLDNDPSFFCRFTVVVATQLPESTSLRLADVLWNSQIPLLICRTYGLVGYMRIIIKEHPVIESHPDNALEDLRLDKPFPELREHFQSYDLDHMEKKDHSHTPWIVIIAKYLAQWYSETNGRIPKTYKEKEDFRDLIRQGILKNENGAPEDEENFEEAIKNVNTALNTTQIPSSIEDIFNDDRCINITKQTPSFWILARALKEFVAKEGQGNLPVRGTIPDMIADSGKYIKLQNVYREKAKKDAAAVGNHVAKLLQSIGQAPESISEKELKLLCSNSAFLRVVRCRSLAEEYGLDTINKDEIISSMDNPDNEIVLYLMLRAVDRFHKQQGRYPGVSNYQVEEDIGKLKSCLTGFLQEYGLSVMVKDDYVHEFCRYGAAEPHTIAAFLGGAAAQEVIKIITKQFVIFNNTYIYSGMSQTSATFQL

| Structure (SMILES) | IC50 [µM] |
| --- | --- |
| Nc1ncnc2c1c(C#Cc1c(F)cc(OCn3nccn3)cc1F)cn2[C@@H]1O[C@H](CNS(N)(=O)=O)[C@@H](O)[C@H]1O [Example 67, 4-Amino-5-[2-[2,6-difluoro-4-(triazol-2-ylmethoxy)phenyl]ethynyl]-7-[(2R,3R,4S,5R)-3,4-dihydroxy-5-[(sulfamoylamino)methyl]tetrahydrofuran-2-yl]pyrrolo[2,3-d]pyrimidine] | 0.0085 |
| Nc1ncnc2c1c(C#Cc1c(F)ccnc1F)cn2[C@@H]1O[C@H](CNS(N)(=O)=O)[C@@H](O)[C@H]1O [Example 69, 4-Amino-5-[2-(2,4-difluoro-3-pyridyl)ethynyl]-7-[(2R,3R,4S,5R)-3,4-dihydroxy-5-[(sulfamoylamino)methyl]tetrahydrofuran-2-yl]pyrrolo[2,3-d]pyrimidine] | 0.015 |
| CCS(=O)(=O)c1cc(N2CCCC2)cc(F)c1C#Cc1cn([C@@H]2O[C@H](CNS(N)(=O)=O)[C@@H](O)[C@H]2O)c2ncnc(N)c12 [Example 70, 4-Amino-7-[(2R,3R,4S,5R)-3,4-dihydroxy-5-[(sulfamoylamino)methyl]tetrahydrofuran-2-yl]-5-[2-(2-ethylsulfonyl-6-fluoro-4-pyrrolidin-1-yl-phenyl)ethynyl]pyrrolo[2,3-d]pyrimidine] | 0.013 |
| COc1cncc(F)c1C#Cc1cn([C@@H]2O[C@H](CNS(N)(=O)=O)[C@@H](O)[C@H]2O)c2ncnc(N)c12 [Example 71, 4-Amino-7-[(2R,3R,4S,5R)-3,4-dihydroxy-5-[(sulfamoylamino)methyl]tetrahydrofuran-2-yl]-5-[2-(3-fluoro-5-methoxy-4-pyridyl)ethynyl]pyrrolo[2,3-d]pyrimidine] | 0.014 |
| CCS(=O)(=O)c1cc(N2CC[C@@H](O)C2)cc(F)c1C#Cc1cn([C@@H]2O[C@H](CNS(N)(=O)=O)[C@@H](O)[C@H]2O)c2ncnc(N)c12 [Example 72, 4-Amino-7-[(2R,3R,4S,5R)-3,4-dihydroxy-5-[(sulfamoylamino)methyl]tetrahydrofuran-2-yl]-5-[2-[2-ethylsulfonyl-6-fluoro-4-[(3R)-3-hydroxypyrrolidin-1-yl]phenyl]ethynyl]pyrrolo[2,3-d]pyrimidine] | 0.0044 |
| Nc1ncnc2c1c(C#Cc1ncc(OCc3ccccc3)cn1)cn2[C@@H]1O[C@H](CNS(N)(=O)=O)[C@@H](O)[C@H]1O [Example 76, 4-Amino-5-[2-(5-benzyloxypyrimidin-2-yl)ethynyl]-7-[(2R,3R,4S,5R)-3,4-dihydroxy-5-[(sulfamoylamino)methyl]tetrahydrofuran-2-yl]pyrrolo[2,3-d]pyrimidine] | 0.0051 |
| NC(=O)c1cccc(F)c1C#Cc1cn([C@@H]2O[C@H](CNS(N)(=O)=O)[C@@H](O)[C@H]2O)c2ncnc(N)c12 [Example 79, 2-[2-[4-Amino-7-[(2R,3R,4S,5R)-3,4-dihydroxy-5-[(sulfamoylamino)methyl]tetrahydrofuran-2-yl]pyrrolo[2,3-d]pyrimidin-5-yl]ethynyl]-3-fluorobenzamide] | 0.0032 |
| COc1ncc(F)c(C#Cc2cn([C@@H]3O[C@H](CNS(N)(=O)=O)[C@@H](O)[C@H]3O)c3ncnc(N)c23)c1F [Example 80, 4-Amino-5-[2-(3,5-difluoro-2-methoxy-4-pyridyl)ethynyl]-7-[(2R,3R,4S,5R)-3,4-dihydroxy-5-[(sulfamoylamino)methyl]tetrahydrofuran-2-yl]pyrrolo[2,3-d]pyrimidine] | 0.014 |
| COc1cnc(OC)c(F)c1C#Cc1cn([C@@H]2O[C@H](CNS(N)(=O)=O)[C@@H](O)[C@H]2O)c2ncnc(N)c12 [Example 81, 4-Amino-7-[(2R,3R,4S,5R)-3,4-dihydroxy-5-[(sulfamoylamino)methyl]tetrahydrofuran-2-yl]-5-[2-(3-fluoro-2,5-dimethoxy-4-pyridyl)ethynyl]pyrrolo[2,3-d]pyrimidine] | 0.0056 |
| CCSc1ccccc1C#Cc1cn([C@@H]2O[C@H](CNS(N)(=O)=O)[C@@H](O)[C@H]2O)c2ncnc(N)c12 [Example 82, 4-Amino-7-[(2R,3R,4S,5R)-3,4-dihydroxy-5-[(sulfamoylamino)methyl]tetrahydrofuran-2-yl]-5-[2-(2-ethylsulfanylphenyl)ethynyl]pyrrolo[2,3-d]pyrimidine] | 0.01 |
| Nc1ncnc2c1c(C#Cc1cccc3c1S(=O)(=O)CCC3)cn2[C@@H]1O[C@H](CNS(N)(=O)=O)[C@@H](O)[C@H]1O [Example 83, 4-Amino-7-[(2R,3R,4S,5R)-3,4-dihydroxy-5-[(sulfamoylamino)methyl]tetrahydrofuran-2-yl]-5-[2-(1,1-dioxo-3,4-dihydro-2H-thiochromen-8-yl)ethynyl]pyrrolo[2,3-d]pyrimidine] | 0.019 |
| Nc1ncnc2c1c(C#Cc1c(F)cccc1S(N)(=O)=O)cn2[C@@H]1O[C@H](CNS(N)(=O)=O)[C@@H](O)[C@H]1O [Example 84, 2-[2-[4-Amino-7-[(2R,3R,4S,5R)-3,4-dihydroxy-5-[(sulfamoylamino)methyl]tetrahydrofuran-2-yl]pyrrolo[2,3-d]pyrimidin-5-yl]ethynyl]-3-fluoro-benzenesulfonamide] | 0.0097 |
| Nc1ncnc2c1c(C#Cc1c(F)cccc1OCC1CC1)cn2[C@@H]1O[C@H](CNS(N)(=O)=O)[C@@H](O)[C@H]1O [Example 86, 4-Amino-5-[2-[2-(cyclopropylmethoxy)-6-fluoro-phenyl]ethynyl]-7-[(2R,3R,4S,5R)-3,4-dihydroxy-5-[(sulfamoylamino)methyl]tetrahydrofuran-2-yl]pyrrolo[2,3-d]pyrimidine] | 0.0054 |
| Nc1ncnc2c1c(C#Cc1ncccc1F)cn2[C@@H]1O[C@H](CNS(N)(=O)=O)[C@@H](O)[C@H]1O [Example 88, 4-Amino-7-[(2R,3R,4S,5R)-3,4-dihydroxy-5-[(sulfamoylamino)methyl]tetrahydrofuran-2-yl]-5-[2-(3-fluoro-2-pyridyl)ethynyl]pyrrolo[2,3-d]pyrimidine] | 0.018 |
| CSc1ccccc1C#Cc1cn([C@@H]2O[C@H](CNS(N)(=O)=O)[C@@H](O)[C@H]2O)c2ncnc(N)c12 [Example 89, 4-Amino-7-[(2R,3R,4S,5R)-3,4-dihydroxy-5-[(sulfamoylamino)methyl]tetrahydrofuran-2-yl]-5-[2-(2-methylsulfanylphenyl)ethynyl]pyrrolo[2,3-d]pyrimidine] | 0.011 |
| Nc1ncnc2c1c(C#Cc1ccccc1S(N)(=O)=O)cn2[C@@H]1O[C@H](CNS(N)(=O)=O)[C@@H](O)[C@H]1O [Example 90, 2-[2-[4-Amino-7-[(2R,3R,4S,5R)-3,4-dihydroxy-5-[(sulfamoylamino)methyl]tetrahydrofuran-2-yl]pyrrolo[2,3-d]pyrimidin-5-yl]ethynyl]benzenesulfonamide] | 0.0056 |
| NC(=O)c1cccc(COc2ccc(C#Cc3cn([C@@H]4O[C@H](CNS(N)(=O)=O)[C@@H](O)[C@H]4O)c4ncnc(N)c34)cc2)c1 [Example 91, 3-[[4-[2-[4-Amino-7-[(2R,3R,4S,5R)-3,4-dihydroxy-5-[(sulfamoylamino)methyl]tetrahydrofuran-2-yl]pyrrolo[2,3-d]pyrimidin-5-yl]ethynyl]phenoxy]methyl]benzamide] | 0.018 |
| COc1cccc(OC)c1C#Cc1cn([C@@H]2C[C@H](CNS(N)(=O)=O)[C@@H](O)[C@H]2O)c2ncnc(N)c12 [Example 94, 4-Amino-7-[(1R,2S,3R,4R)-2,3-dihydroxy-4-[(sulfamoylamino)methyl]cyclopentyl]-5-[2-(2,6-dimethoxyphenyl)ethynyl]pyrrolo[2,3-d]pyrimidine] | 0.021 |
| COc1cccc(F)c1C#Cc1cn([C@@H]2C[C@H](CNS(N)(=O)=O)[C@@H](O)[C@H]2O)c2ncnc(N)c12 [Example 95, 4-Amino-7-[(1R,2S,3R,4R)-2,3-dihydroxy-4-[(sulfamoylamino)methyl]cyclopentyl]-5-[2-(2-fluoro-6-methoxy-phenyl)ethynyl]pyrrolo[2,3-d]pyrimidine] | 0.013 |
| Nc1ncnc2c1c(C#Cc1cccc3cccnc13)cn2[C@@H]1C[C@H](CNS(N)(=O)=O)[C@@H](O)[C@H]1O [Example 96, 8-[2-[4-Amino-7-[(1R,2S,3R,4R)-2,3-dihydroxy-4-[(sulfamoylamino)methyl]cyclopentyl]pyrrolo[2,3-d]pyrimidin-5-yl]ethynyl]quinoline] | 0.0092 |
| CSc1cccc(F)c1C#Cc1cn([C@@H]2C[C@H](CNS(N)(=O)=O)[C@@H](O)[C@H]2O)c2ncnc(N)c12 [Example 98, 4-Amino-7-[(1R,2S,3R,4R)-2,3-dihydroxy-4-[(sulfamoylamino)methyl]cyclopentyl]-5-[2-(2-fluoro-6-methylsulfanyl-phenyl)ethynyl]pyrrolo[2,3-d]pyrimidine] | 0.0083 |
| CCSc1cccc(F)c1C#Cc1cn([C@@H]2C[C@H](CNS(N)(=O)=O)[C@@H](O)[C@H]2O)c2ncnc(N)c12 [Example 99, 4-Amino-7-[(1R,2S,3R,4R)-2,3-dihydroxy-4-[(sulfamoylamino)methyl]cyclopentyl]-5-[2-(2-ethylsulfanyl-6-fluoro-phenyl)ethynyl]pyrrolo[2,3-d]pyrimidine] | 0.019 |
| Nc1ncnc2c1c(C#Cc1c(F)cc(N3CCOCC3)cc1F)cn2[C@@H]1C[C@H](CNS(N)(=O)=O)[C@@H](O)[C@H]1O [Example 101, 4-[4-[2-[4-amino-7-[(1R,2S,3R,4R)-2,3-dihydroxy-4-[(sulfamoylamino)methyl]cyclopentyl]pyrrolo[2,3-d]pyrimidin-5-yl]ethynyl]-3,5-difluoro-phenyl]morpholine] | 0.0076 |
| CN1CCN(c2cc(F)c(C#Cc3cn([C@@H]4C[C@H](CNS(N)(=O)=O)[C@@H](O)[C@H]4O)c4ncnc(N)c34)c(F)c2)CC1 [Example 103, 4-Amino-5-[2-[2,6-difluoro-4-(4-methylpiperazin-1-yl)phenyl]ethynyl]-7-[(1R,2S,3R,4R)-2,3-dihydroxy-4-[(sulfamoylamino)methyl]cyclopentyl]pyrrolo[2,3-d]pyrimidine] | 0.013 |
| Nc1ncnc2c1c(C#Cc1c(F)cc(OCn3cccn3)cc1F)cn2[C@@H]1C[C@H](CNS(N)(=O)=O)[C@@H](O)[C@H]1O [Example 104, 4-Amino-5-[2-[2,6-difluoro-4-(pyrazol-1-ylmethoxy)phenyl]ethynyl]-7-[(1R,2S,3R,4R)-2,3-dihydroxy-4-[(sulfamoylamino)methyl]cyclopentyl]pyrrolo[2,3-d]pyrimidine] | 0.0089 |
